Values quoted from earlier work in PubChem BioAssay AID1259409 (Chemical Carcinogenesis Research Information System (CCRIS), 2018).

Tested on: rodent chemically induced tumor inhibition, incidence and multiplicity
Assay: CCRIS tumor inhibitor studies
Conditions: Route [Inhibitor]: ORAL

For `Cn1c(=O)c2c(ncn2C)n(C)c1=O`, the “tumour outcome (control, treated, inhibition, significance)” value (Carcinogen: 2-AMINO-1-METHYL-6-PHENYLIMIDAZO[4,5-B]PYRIDINE [105650-23-5], Dose [Inhibitor]: 0.1% IN DRINKING WATER FOR 54 WK (STUDY DURATION: 54 WK), Species: RAT, Strain/Sex: F344/DUCRJ/FEMALE, Target Tissue: Type of Lesion: MAMMARY GLAND: ADENOMA OR ADENOCARCINOMA, Dose [Carcinogen]: 0.02% IN DIET FOR 54 WK (STUDY DURATION: 54 WK), Promoter: NONE) is listed as 8/20 (40%), 2/20 (10%), 75%, p<0.05, the “tumour outcome (control, treated, inhibition, significance)” value (Carcinogen: 4-(METHYLNITROSAMINO)-1-(3-PYRIDYL)-1-BUTANONE, 64091-91-4, Dose [Inhibitor]: 0, 1120 MG IN DRINKING WATER FOR 13 WK BEGINNING 2 WK PRIOR TO CARCINOGEN TREATMENT (STUDY DURATION: 18 WK), Species: MOUSE, Strain/Sex: STRAIN-A/FEMALE, Target Tissue: Type of Lesion: LUNG: ADENOMA, Dose [Carcinogen]: 11.65 MG/KG 3/WK FOR 10 WK, Promoter: NONE USED) is listed as 100%, 100%, 0%, not significant and the “tumour outcome (control, treated, inhibition, significance)” value (Carcinogen: 4-(METHYLNITROSAMINO)-1-(3-PYRIDYL-1-BUTANONE), 64091-91-4, Dose [Inhibitor]: 0, 170 PPM IN DRINKING WATER FOR 22WK BEGINNING 1 WK PRIOR TO CARCINOGEN TREATMENT (STUDY DURATION:101 WK), Species: RAT, Strain/Sex: F344/MALE, Target Tissue: Type of Lesion: LIVER: TUMOR, Dose [Carcinogen]: 1.5 MG/KG 3/WK FOR 20 WK, Promoter: NONE USED) is listed as 11/32 (34%), 5/20 (25%), 26%, not significant. The “tumour outcome (control, treated, inhibition, significance)” value (Carcinogen: 4-(METHYLNITROSAMINO)-1-(3-PYRIDYL-1-BUTANONE), 64091-91-4, Dose [Inhibitor]: 0, 170 PPM IN DRINKING WATER FOR 22 WK BEGINNING 1 WK PRIOR TO CARCINOGEN TREATMENT (STUDY DURATION:101 WK), Species: RAT, Strain/Sex: F344/MALE, Target Tissue: Type of Lesion: LUNG:TUMOR, Dose [Carcinogen]: 1.5 MG/KG 3/WK FOR 20 WK, Promoter: NONE USED) was 15/32 (47%), 4/20 (20%), 57%, not significant, the “tumour outcome (control, treated, inhibition, significance)” value (Carcinogen: 4-(METHYLNITROSAMINO)-1-(3-PYRIDYL-1-BUTANONE), 64091-91-4, Dose [Inhibitor]: 0, 170 PPM IN DRINKING WATER FOR 22 WK BEGINNING 1 WK PRIOR TO CARCINOGEN TREATMENT (STUDY DURATION:101 WK), Species: RAT, Strain/Sex: F344/MALE, Target Tissue: Type of Lesion: NASAL CAVITY: TUMOR, Dose [Carcinogen]: 1.5 MG/KG 3/WK FOR 20 WK, Promoter: NONE USED) was 6/32 (19%), 3/20 (15%), 21%, not significant and the “tumour outcome (control, treated, inhibition, significance)” value (Carcinogen: 4-(METHYLNITROSAMINO)-1-(3-PYRIDYL-1-BUTANONE), 64091-91-4, Dose [Inhibitor]: 0, 680 PPM IN DRINKING WATER FOR 22 WK BEGINNING 1 WK PRIOR TO CARCINOGEN TREATMENT (STUDY DURATION:101 WK), Species: RAT, Strain/Sex: F344/MALE, Target Tissue: Type of Lesion: LUNG:TUMOR, Dose [Carcinogen]: 1.5 MG/KG 3/WK FOR 20 WK, Promoter: NONE USED) was 15/32 (47%), 2/20 (10%), 79%, p<0.01. The “tumour outcome (control, treated, inhibition, significance)” value (Carcinogen: 4-(METHYLNITROSAMINO)-1-(3-PYRIDYL-1-BUTANONE), 64091-91-4, Dose [Inhibitor]: 0, 680 PPM IN DRINKING WATER FOR 22 WK BEGINNING 1 WK PRIOR TO CARCINOGEN TREATMENT (STUDY DURATION: 101 WK), Species: RAT, Strain/Sex: F344/MALE, Target Tissue: Type of Lesion: NASAL CAVITY: TUMOR, Dose [Carcinogen]: 1.5 MG/KG 3/WK FOR 20 WK, Promoter: NONE USED) was 6/32 (19%), 5/20 (25%), -32%, not significant, the “tumour outcome (control, treated, inhibition, significance)” value (Carcinogen: 4-METHYLNITROSAMINO-1-(3-PYRIDYL)-1-BUTANONE, 64091-91-4, Dose [Inhibitor]: 0, 1120 PPM IN DRINKING WATER 2 WK PRIOR TO CARCINOGEN AND CONTINUING FOR 13 WK (STUDY DURATION: 29 WK), Species: MOUSE, Strain/Sex: A/J/FEMALE, Target Tissue: Type of Lesion: LUNG: ADENOMA, Dose [Carcinogen]: 11.65 MG/KG IN CORN OIL 3/WK FOR 10 WK, Promoter: NONE USED) was 100%, 100%, 0%, not significant and the “tumour outcome (control, treated, inhibition, significance)” value (Carcinogen: 7,12-DIMETHYLBENZ[A]ANTHRACENE, 57-97-6, Dose [Inhibitor]: 0, 500 MG/L IN DRINKING WATER BEGINNING AT 27 D OF AGE AND CONTINUING TO 59 D OF AGE (STUDY DURATION: 52 WK), Species: RAT, Strain/Sex: SPRAGUE-DAWLEY/FEMALE, Target Tissue: Type of Lesion: MAMMARY GLAND: BENIGN TUMOR, Dose [Carcinogen]: 0.5 MG/100 G BW ONCE AT 55 D OF AGE, Promoter: NONE USED) was 71/73 (97%), 65/70 (93%), 4%, not significant. For the same compound, the “tumour outcome (control, treated, inhibition, significance)” value (Carcinogen: 7,12-DIMETHYLBENZ[A]ANTHRACENE, 57-97-6, Dose [Inhibitor]: 0, 500 MG/L IN DRINKING WATER BEGINNING AT 27 D OF AGE AND CONTINUING TO 59 D OF AGE (STUDY DURATION: 52 WK), Species: RAT, Strain/Sex: SPRAGUE-DAWLEY/FEMALE, Target Tissue: Type of Lesion: MAMMARY GLAND: CARCINOMA, Dose [Carcinogen]: 0.5 MG/100 G BW ONCE AT 55 D OF AGE, Promoter: NONE USED) was 42/73 (58%), 20/70 (29%), 50%, p<0.001, the “tumour outcome (control, treated, inhibition, significance)” value (Carcinogen: 7,12-DIMETHYLBENZ[A]ANTHRACENE, 57-97-6, Dose [Inhibitor]: 0, 500 MG/L IN DRINKING WATER BEGINNING AT 59 D OF AGE AND CONTINUING FOR DURATION OF STUDY (STUDY DURATION: 48 WK), Species: RAT, Strain/Sex: SPRAGUE-DAWLEY/FEMALE, Target Tissue: Type of Lesion: MAMMARY GLAND: BENIGN TUMOR, Dose [Carcinogen]: 0.5 MG/100 G BW ONCE AT 55 D OF AGE, Promoter: NONE USED) was 70/72 (97%), 55/62 (89%), 8%, p,0.05 and the “tumour outcome (control, treated, inhibition, significance)” value (Carcinogen: 7,12-DIMETHYLBENZ[A]ANTHRACENE, 57-97-6, Dose [Inhibitor]: 0, 500 MG/L IN DRINKING WATER BEGINNING AT 59 D OF AGE AND CONTINUING FOR DURATION OF STUDY (STUDY DURATION: 48 WK), Species: RAT, Strain/Sex: SPRAGUE-DAWLEY/FEMALE, Target Tissue: Type of Lesion: MAMMARY GLAND: CARCINOMA, Dose [Carcinogen]: 0.5 MG/100 G BW ONCE AT 55 D OF AGE, Promoter: NONE USED) was 39/72 (54%), 31/62 (50%), 7%, not significant. The “tumour outcome (control, treated, inhibition, significance)” value (Carcinogen: 7,12-DIMETHYLBENZ[A]ANTHRACENE, 57-97-6, Dose [Inhibitor]: 0, 500 MG/L IN DRINKING WATER OF 58 DAY OLD VIRGIN RATS (STUDY DURATION: 56 WK), Species: RAT, Strain/Sex: SPRAGUE-DAWLEY/FEMALE, Target Tissue: Type of Lesion: MAMMARY GLAND: CARCINOMA, Dose [Carcinogen]: 2 MG/100 G BW ONCE AT 55 D OF AGE, Promoter: NONE USED) was 95%, 100%, -5%, not significant.
